We go through nine compounds from PMC5526570, “In vitro and in vivo anti-inflammatory active copper(II)-lawsone complexes” (PLoS ONE, 2017).

Entries after “also recorded” stand apart in the source; their conditions may differ.

In general, viability refers to a read-out of living cells in per cent, often relative to untreated cells. Read a high viability as less harm to the cells.

Data set [1] has as its system PMN infiltration of hind paw tissue. Nature of the data set: Ex vivo histological evaluation of hind paw tissue (hematoxylin/eosin). In kind it is in vivo, rat. The following applies: rats, i.p., tissue after 6 h. The source says:
All the animals were sacrificed by cervical dislocation, and immediately after that, the affected hind paws were separated and underwent the process of dehydration and fixation, and were embedded into paraffin blocks by means of standard protocols. The histopathological changes, like infiltration of different skin elements and deeper laying tissues by the polymorphonuclear white blood cells (dominantly neutrophils and lymphocytes) stained by the standard hematoxylin/eosin staining, were evaluated.

The test system of data set [2] is NF-κB. Nature of the data set: NF-κB activity, secreted alkaline phosphatase reporter in THP1-XBlue-MD2-CD14 cells. In kind it is cell-based, human. The following applies: 1 h pretreatment, 24 h; for decrease of NF-κB activity stimulated by LPS: LPS 1 μg/mL; for decrease of NF-κB activation induced by Pam3CSK4: Pam3CSK4 100 ng/mL; for decrease of NF-κB activity stimulated by TNF-α: TNF-α 10 ng/mL. The method, then:
The THP-1 human monocytic leukemia cell line was obtained from the European Collection of Cell Cultures (ECACC, Salisbury, UK) and THP1-XBlue™-MD2-CD14 cells were purchased from Invivogen (San Diego, USA). The cells were cultivated at 37°C in the RPMI 1640 medium supplemented with 2 mM L-glutamine, 10% FBS, 100 U/mL penicillin, and 100 μg/mL streptomycin in a humidified atmosphere containing 5% CO2. The culture was split twice a week when the cells had reached the concentration of 5–7×10^5 cells/mL. The cell count and viability were determined following staining with erythrosin B. The cells were counted manually using a hemocytometer and a light microscope.
One hundred microliters of the stabilized THP-1 cells (5th-20th passage) were split into 96-well plates to afford the concentration of 5×10^5 cells/mL, and differentiation into macrophages was induced by the addition of phorbol myristate acetate (PMA), as described previously. THP1-XBlue™-MD2-CD14 cells were used without any differentiation due to their stabile expression of MD2 and CD14 co-receptors.
THP1-XBlue™-MD2-CD14 cells were transferred into a serum-free medium at the concentration of 5×10^5 cells/mL. The floated cells were pretreated with the tested compounds (i.e. complexes 1–7, [Cu(Law)2(H2O)2]·0.5H2O, and Hlaw, respectively) and stimulated either by LPS (1 μg/mL), or by the addition of human recombinant TNF-α (10 ng/mL; Invivogen), or by Pam3CSK4 (100 ng/mL; Invivogen), a synthetic triacylated lipoprotein and selective Toll-like receptor 1/2 agonist. After 24 h of the incubation, 20 μL of the cultivation medium was mixed with 180 μL of Quanti-Blue medium and incubated according to the manufacturer’s instructions at 37°C for 2 h. The activity of released alkaline phosphatase, directly proportional to the NF-κB activity, was quantified from the difference in absorbance at 655 nm against the untreated control.

Data set [3] has as its system carrageenan-induced hind paw edema. The experiment in a line: Carrageenan-induced hind paw edema, plethysmometry. In kind it is in vivo, rat. The following applies: rats, i.p., dose corresponding to 40 mmol Cu/kg (ca. 20 mg/kg), 30 min before carrageenan, up to 6 h. The method, then: Wistar—SPF (6–8 weeks male) rats were obtained from the AnLab, Ltd., Prague. The animals were kept in plexiglass cages at the constant temperature of 22±1°C, and relative humidity of 55±5% for at least 1 week before the experiment. They were given food and water ad libitum. After a one-week adaptation period, male Wistar-SPF rats (200–250 g) were randomly assigned into ten groups (n = 7) of animals in the study. The first, control group, received 10% DMF (v/v in water, intraperitoneal; i.p.). The next eight groups were pretreated with complexes 1–7 and [Cu(Law)2(H2O)2]·0.5H2O (at the dose corresponding to […] Cu/kg; ca. 20 mg/kg) and involved into the carrageenan-treatment. The last group was treated with a non-steroidal anti-inflammatory drug Indomethacin (5 mg/kg), which served as a positive control (Indomethacin + carrageenan).
The carrageenan-induced hind paw edema model was used for the determination of the anti-inflammatory activity. […] The paw volume was measured immediately after the carrageenan injection and during the next 6 h after the administration of the edematogenic agent using a plethysmometer (model 7159, Ugo Basile, Varese, Italy). The degree of swelling induced was evaluated as the percentage of change in the volume of the right hind paw after the carrageenan treatment from the volume of the right hind paw before the carrageenan treatment.

Data set [4] relates to TNF-α. The experiment in a line: TNF-α secretion in LPS-stimulated THP-1 macrophages (ELISA). The following applies: 100 nM, 1 h pretreatment, LPS 1 μg/mL, 24 h. In kind it is cell-based, human. The method, then: One hundred microliters of the stabilized THP-1 cells (5th-20th passage) were split into 96-well plates to afford the concentration of 5×10^5 cells/mL, and differentiation into macrophages was induced by the addition of phorbol myristate acetate (PMA), as described previously. […] Whereas the complexes were dissolved in PBS, lawsone was dissolved in DMSO. With respect to the results of cytotoxicity assay, the concentration of 100 nM should not affect the viability of the target cells in any way. For comparative purposes, a conventional drug prednisone was used at the standard dose of 1 μM dissolved in DMSO. Then, the DMSO was added to the rest of the wells. […] Vehicle-treated cells contained a vehicle (0.1% DMSO) only. The TNF-α secretion in the pretreated differentiated THP-1 macrophages was induced by the addition of 1 μg/mL LPS dissolved in sterile water. The basal cytokine expression level was determined in the control cells without the LPS stimulation. LPS triggers an inflammatory response through binding to toll-like receptor 4 (TLR-4) and subsequently activates the NF-κB signaling pathway. The cultivation medium was aspirated 24 h after the LPS addition and the cell residue was removed by centrifugation. The concentration of the secreted TNF-α was determined using the Human TNF-α Instant ELISA kit.
(In general: In an ELISA, binding on a coated surface is turned into a signal by an enzyme label.)

A short description of data set [5]: In vitro cytotoxicity, WST-1 assay, 24 h. In kind it is cell-based. The following applies: human, THP-1 monocytic leukemia cells.
Description: The final concentration of the solvent in the culture medium was 0.1% (v/v). The cells were incubated at 37°C with 5% CO2 for 24 h. After the incubation, the cytotoxicity was determined by the Cell Proliferation Reagent WST-1 kit according to the manufacturer´s instructions.
Where [6] appears, read: 100 nM, vs vehicle-treated cells.

Take `O.O=C1C=C([O-])C(=O)c2ccccc21.O=C1C=C([O-])C(=O)c2ccccc21.[Cu+2].c1ccncc1` [compound 1, [Cu(Law)2(H2O)(py)]]: the “PMN infiltration / inflammatory reaction in hind paw tissue” value (“PMN infiltration / inflammatory reaction” for short) in data set [1] ((ca. 20 mg/kg)) is “mainly scarce and diffuse”. The “decrease of NF-κB activity stimulated by LPS” value (shortened to “decrease … by LPS”) in data set [2] (setting [6]) was “did not affect”. Moreover, the “decrease of NF-κB activation induced by Pam3CSK4” value (“decrease … by Pam3CSK4” for short) in data set [2] (100 nM) is recorded as “no noticeable effect”. Also, the “antiedematous activity (hind paw swelling)” value in data set [3] is on record as “diminish completely the swelling of the hind paw; also recorded: most active”.

Take `O=C1C=C([O-])C(=O)c2ccccc21.O=C1C=C([O-])C(=O)c2ccccc21.[Cu+2].c1c[nH]cn1.c1c[nH]cn1` [compound 2, [Cu(Law)2(Im)2]]: in data set [2] (setting [6]), the “decrease … by LPS” value stood at 10%. In addition, in data set [2] (100 nM), the “decrease … by Pam3CSK4” value is given as “no noticeable effect”.

With `COc1ccc2c(c1)c(CC(=O)O)c(C)n2C(=O)c1ccc(Cl)cc1` [indomethacin, reference compound], in data set [1] (5 mg/kg), the “PMN infiltration / inflammatory reaction” value is “mainly scarce and diffuse”.

Turning to `O=C1C=C(O)C(=O)c2ccccc21` [lawsone, 2-hydroxy-1,4-naphthoquinone], the “decrease … by LPS” value in data set [2] (setting [6]) is 19–24%. Besides, the “decrease of NF-κB activity stimulated by TNF-α” value in data set [2] (100 nM) is listed as 32%. Besides, the “decrease of TNF-α expression/secretion in LPS-stimulated cells” value in data set [4] is on record as 28%. The compound further gave a viability at 24 h, 10 µM in data set [5] of about 80%.

For the compound `C[C@]12C=CC(=O)C=C1CC[C@@H]1[C@@H]2C(=O)C[C@@]2(C)[C@H]1CC[C@]2(O)C(=O)CO` [prednisone, reference compound], in data set [2] (1 μM), the “decrease … by LPS” value worked out at 26% and the “decrease of NF-κB activity stimulated by TNF-α” value came to 37%.

Take “[Cu(Law)2(3,5diMePz)2]·0.5H2O [compound 7]”: the “PMN infiltration / inflammatory reaction” value in data set [1] ((ca. 20 mg/kg)) is on record as “massive presence of PMN cells”. In data set [2] (setting [6]), the “decrease … by LPS” value is 19–24%. The “antiedematous activity (hind paw swelling)” value in data set [3] was “least active”.

On to [Cu(Law)2(3-OHpy)2] [compound 6], for which the “decrease … by LPS” value in data set [2] (setting [6]) turned out to be 12%.

With [Cu(Law)2(3-apy)2]·0.5H2O [compound 4], in data set [2] (setting [6]), the “decrease … by LPS” value is reported as 19–24%.

For the compound “[Cu(Law)2(H2O)(2-apy)]·0.5H2O [compound 3]”, the “decrease … by LPS” value in data set [2] (setting [6]) is recorded as 19–24%. Besides, the “decrease … by Pam3CSK4” value in data set [2] (100 nM) is “most efficient”. For the same compound, the “decrease of TNF-α expression/secretion in LPS-stimulated cells” value in data set [4] was “greatest potential”.
